Measured values reported in US5736568A, “2-(aminoalkoxy) phenylalkylamines with antiinflammatory activity” (Knoll Aktiengesellschaft, priority 1994, dated 1998).

How the values were obtained:
[1] = test system: arachidonic acid release from zymosan stimulated macrophages; assay: Test A: Inhibition of Arachidonic Acid Release from Zymosan Stimulated Macrophages; assay type: cell-based, mice (female MF1); conditions: Mus musculus, Macrophage; peritoneal macrophages labelled with [3H]-arachidonic acid, zymosan stimulus, 5 h; tested at 100, 50, 20, 10, 5 and 1 μM
Procedure: Test A was carried out in the following way:
Inhibition of Arachidonic Acid Release from Zymosan Stimulated Macrophages
Female MF1 mice (weighing 20 to 25 g) were killed using a rising concentration of CO2. The mice were laid on their backs and the abdomens wiped with 70% alcohol. The skin was pulled back, exposing the peritoneal wall. Medium A (5 ml) (see below) was injected into the peritoneal cavity of each mouse followed by approximately 1 ml of air using a 20 ml syringe and a 21 G×40 mm needle in order to form a suspension of macrophage cells. The medium and cells were then removed using a 19 G×40 mm needle. The resulting suspension was returned to a sterile beaker kept on ice. The extracts from all the mice were pooled and this pooled cell suspension was counted using a Coulter counter and adjusted to a final cell count of 1-1.3×10^6 cells/ml prior to labelling with [^3 H]-arachidonic acid. Typically five mice provided sufficient cells for each multiwell plate.
Sufficient [^3 H]-arachidonic acid in ethanol to give a final concentration of 1.6 μCi/ml (equivalent to 40 μCi/plate) was blown to dryness under nitrogen. The arachidonic acid was then resuspended in 1 or 2 ml of the cell suspension which was then mixed with the remainder of the cell suspension in a centrifuge bottle.
The following day, non-adherent cells were removed by washing 3 times with sterile phosphate buffered saline (PBS). The adherent peritoneal macrophages were then cultured for a further 24 hours in the presence or absence of drugs, in medium B (see below) at 37° in a 5% CO2 atmosphere in order to measure the effects of drugs on the spontaneous release of arachidonic acid in the absence of stimulus. After this incubation, supernatants were removed to give medium 1 and stored in sealed multi-well plates at 4° C. prior to scintillation counting. […] The supernatants were replaced by fresh medium C containing fresh drug and a stimulus. Three drugs were tested at six concentrations (100, 50, 20, 10, 5 and 1 μM) in replicates of four on each plate. The other wells contained controls consisting of a positive control (e.g. dexamethasone), medium (B) only and medium C only.
Incubation was then continued for a further 5 hours, whereupon the supernatants were collected to give medium 2 and the adherent cells washed with PBS. The cells were then lysed with 100 μl of 0.1% TRITON® X100 in a 0.1% solution of bovine serum albumin in 0.9% saline and mechanically disrupted to give cell lysates. These supernatants (medium 2) and cell lysates (Cells) were also stored in sealed multi-well plates at 4° C. prior to scintillation counting. 200 μl aliquots of media, or 100 μl aliquots of cells were counted using 2 ml of OPTIPHASE "HIGH SAFE" (Trademark of LKB) as scintillant.
The percentage of arachidonic acid released was calculated using the mean values for each group of 4 wells in the following equation. [formula]
The percentage inhibition of arachidonic acid release caused by a drug may then be calculated using the following equation. [formula]
Medium A (for peritoneal lavage)
This mixture was transferred to sterile flask and made up to 400 ml with sterile water.
Medium B (for cell culture)
This mixture was transferred to a sterile beaker and made up to 650 ml with sterile water.
Medium C=medium B+stimulant (zymosan)
The zymosan stimulant was prepared as follows:--zymosan (200 mg) (supplied by Sigma) was added to PBS (20 ml). The mixture was boiled for 30 minutes and the volume restored to 20 ml with water. The zymosan was harvested by centrifugation at 500×g for 5 minutes, washed twice by resuspension in PBS (10 ml) and centrifugation. After the final separation, the zymosan was resuspended in 20 ml PBS and stored as 1 ml aliquots at -20° C.

[2] = test system: carrageenan-induced paw oedema; assay: Test B: Carrageenan-induced rat paw oedema test; assay type: in vivo; conditions: inhibition of paw oedema, 100 mg/kg oral, 3 h after carrageenan
Procedure: Test B was carried out in the following way:
Carrageenan-induced rat paw oedema test
Female rats, weight range 125-150 g were fasted overnight. One of the hind legs of each animal was marked with a line at the connection between the cuboid/navicular and calcaneus/talus bones. Groups of six rats were orally dosed at 10 ml/kg, in random order, with a given dose of the test compound given as a solution or suspension in 10% (w/v) aqueous acacia solution.
One hour after dosing, 0.1 ml of 1% (w/v) sterile carrageenan λ in normal saline was injected deeply into the plantar surface of the marked hind foot of each rat. The volume of the foot (up to the marked line) was measured immediately after injection using duplicate water displacement readings. Three hours after injection the foot volume was measured again and the percentage increase in foot volume relative to the initial reading was calculated.
The increase in foot volume (i.e. the degree of oedema) in drug treated animals when compared with that in the drug untreated control gave the degree of inhibition of paw oedema by the drug.
Compounds were considered to be active in this test if they produced a statistically significant (typically 20% or greater) inhibition of paw oedema in at least two out of three tests after oral dosing at 100 mg/kg. Statistical significance was assessed using the Student's t test for single dose studies and Dunnett's test for multiple dose studies. More advantageous compounds were active in both Tests A and B,

[3] = test system: carrageenan-induced pleurisy; assay: Test C: Carrageenan-induced pleurisy in rats; assay type: in vivo, rat; conditions: 24 h and 48 h, leukocytes harvested at 72 h; for activity in Test C at 10 mg/kg or less: 10 mg/kg or less p.o. at challenge; for activity in Test C at 30 mg/kg: 30 mg/kg p.o. at challenge
Procedure: The most advantageous compounds of formula I were active in Test A and also in the following test. Carrageenan-induced pleurisy in rats was carried out as described by Ackerman et al. J. Pharmacol. Exp. Therap. 1980, 215, 588-595. Migrating leukocytes were harvested by lavage of the thoracic cavity 72 h after injection of 0.3 ml 1% λ-carrageenan in sterile isotonic saline. Test compounds were administered p.o. at the time of challenge and 24 h and 48 h thereafter.

Compound	IC50 [1] [µM]	inhibition at 100 mg/kg [2] [%]	activity in Test C at 10 mg/kg or less [3]	activity in Test C at 30 mg/kg [3]
CN(C)Cc1c(Cl)cccc1OCCN(C)Cc1ccccc1 [Example 1, 2-[2-(N-benzyl-N-methylamino)ethoxy]-6-chloro-N,N-dimethylbenzylamine]	15	70	active	
CN(C)Cc1cccc(Cl)c1OCCN(C)Cc1ccccc1 [Example 2, 2-[2-(N-Benzyl-N-methylamino)ethoxy]-3-chloro-N,N-dimethylbenzylamine]	65			
CN(C)Cc1cc(F)ccc1OCCN(C)Cc1ccccc1 [Example 3, 2-[2-(N-Benzyl-N-methylamino)ethoxy]-5-fluoro-N,N-dimethylbenzylamine]	20	52		active
CN(C)Cc1cc(C#N)ccc1OCCN(C)Cc1ccccc1 [Example 4, 4-[2-(N-Benzyl-N-methylamino)ethoxy]-3-(dimethylaminomethyl)benzonitrile]	60			
CN(C)Cc1cc(Cl)c(Cl)cc1OCCN(C)Cc1ccccc1 [Example 5, 2-[2-(N-Benzyl-N-methylamino)ethoxy]-4,5-dichloro-N,N-dimethylbenzylamine]	12	6		
CN(C)Cc1ccc(Cl)cc1OCCN(C)Cc1ccccc1 [Example 6, 2-[2-(N-Benzyl-N-methylamino)ethoxy]-4-chloro-N,N-dimethylbenzylamine]	15	18		active
CN(C)Cc1cc(C(F)(F)F)ccc1OCCN(C)Cc1ccccc1 [Example 7, 2-[2-(N-Benzyl-N-methylamino)ethoxy]-N,N-dimethyl-5-trifluoromethylbenzylamine]	20	18		
CN(C)Cc1c(OCCN(C)Cc2ccccc2)ccc2ccccc12 [Example 8, N-Benzyl-2-[1-(dimethylaminomethyl)naphth-2-yloxy]-N-methylethylamine]	13	23		active
CN(C)Cc1cc(Cl)ccc1OCCNCc1ccccc1 [Example 9, 2-[2-(Benzylamino)ethoxy]-5-chloro-N,N-dimethylbenzyl-amine]	9	56		
CN(C)Cc1cc(Cl)ccc1OCCN(C)Cc1ccc(C#N)cc1 [Example 10, 4-{N-[2-(4-Chloro-2-dimethylaminomethylphenoxy)ethyl]-N-[methyl]aminomethyl}benzonitrile]	47			
CN(C)Cc1ccccc1OCCN(C)Cc1ccccc1Cl [Example 14, 2-{2-[N-(2-Chlorobenzyl)-N-methylamino]ethoxy}-N,N-dimethylbenzylamine]	45		active	
CN(C)Cc1cc(Cl)ccc1OCCN1CCCCC1 [Example 16, 5-Chloro-2-(2-piperidinoethoxy)-N,N-dimethylbenzylamine]	26			
COc1ccc(CN(C)C)c(OCCN(C)Cc2ccccc2)c1 [Example 18, 2-[2-(N-Benzyl-N-methylamino)ethoxy]-4-methoxy-N,N-dimethylbenzylamine]	24			
CCN(CC)CCOc1ccccc1CN(C)C [Example 19, 2-(2-diethylaminoethoxy)-N,N-dimethylbenzylamine]	65			
CN(C)CCOc1ccccc1CN(C)C [Example 23, 2-(2-dimethylaminoethoxy)-N,N-dimethylbenzylamine]	62			
CN(C)CCCOc1ccccc1CN(C)C [Example 24, N,N-dimethyl-2-(3-dimethylaminopropoxy) benzylamine]	50			
CCN(CC)CCOc1ccc(Cl)cc1CN(C)C [Example 25]	30	22		
COC(=O)c1ccc(OCCN(C)Cc2ccccc2)c(CN(C)C)c1 [Example 26, methyl 4-[2-(N-benzyl-N-methylamino)ethoxy]-3-(dimethylaminomethyl) benzoate]	33			
COc1ccc(OCCN(C)Cc2ccccc2)c(CN)c1 [Example 27, 2-[2-(N-benzyl-N-methylamino)ethoxy]-5-methoxybenzylamine]	34			
CN(CCOc1ccc(Cl)cc1CN)Cc1ccccc1 [Example 28, 2-[2-(N-benzyl-N-methylamino)ethoxy]-5-chlorobenzylamine]	18			
CN(CCCOc1cccc(Cl)c1CN)Cc1ccccc1 [Example 29, 2-[3-(N-benzyl-N-methylamino)propoxy]-6-chlorobenzylamine]	15			
CN(C)Cc1cc(Cl)ccc1OCCN(C)Cc1ccc(C(N)=O)cc1 [Example 30, 4-{N-[2-(4-chloro-2-dimethylaminomethylphenoxy)ethyl]-N-[methyl]aminomethyl}benzamide]	74			
CN(C)Cc1cc(C(N)=O)ccc1OCCN(C)Cc1ccc(Cl)cc1 [Example 31, 4-{2-[N-(4-chlorobenzyl)-N-methylamino]ethoxy}-3-(dimethylaminomethyl)benzamide]	39	19		
CN(C)Cc1cc(O)ccc1OCCN(C)Cc1ccccc1 [Example 32, 4-[2-(N-benzyl-N-methylamino)ethoxy]-3-(dimethylaminomethyl)phenol]	39	0		
CN(C)Cc1c(Cl)cccc1OCCN(C)Cc1ccccc1O [Example 33, 2-{N-[2-(3-chloro-2-dimethylaminomethylphenoxy)ethyl]-N-[methyl]aminomethyl}phenol]	16		active	
COc1ccc(OCCN(C)Cc2ccccc2)c(CN(C)C)c1 [Example 34, 2-[2-(N-benzyl-N-methylamino)ethoxy]-5-methoxy-N,N-dimethylbenzylamine]	35			
CN(C)Cc1c(Cl)cccc1OCCCN(C)Cc1ccccc1 [Example 35, 2-[3-(N-benzyl-N-methylamino)propoxy]-6-chloro-N,N-dimethylbenzylamine]	33		active	
CN(C)Cc1ccccc1OCCNC(C)(C)c1ccc(Cl)cc1 [Example 36, 2-[2-(4-chloro-α,α-dimethylbenzylamino)ethoxy]-N,N-dimethylbenzylamine]	3		active	
CN(CCOc1cccc(Cl)c1CN)Cc1ccccc1 [Example 37, 2-[2-(N-benzyl-N-methylamino)ethoxy]-6-chlorobenzylamine]	12		active	
